Laboratory results: ChEMBL document CHEMBL4387705, “Synthesis of new arylsulfonylspiroimidazolidine-2',4'-diones and study of their effect on stimulation of insulin release from MIN6 cell line, inhibition of human aldose reductase, sorbitol accumulations in various tissues and oxidative stress” (Eur J Med Chem, 2019)
pIC50: −log10 of the molar value.

Tests used:
[1] = molecular target: Aldo-keto reductase family 1 member B1 (Rattus norvegicus) (UniProt P07943); assay: (§1) Inhibition of ALR2 in rat erythrocytes assessed as reduction in sorbitol accumulation incubated for 3 hrs in presence of 28 mM glucose by gas chromatographic analysis relative to control; assay type: cell-based
[2] = molecular target: T1, Aldo-keto reductase family 1 member B1 (Rattus norvegicus, UniProt P07943); assay: as §1; assay type: cell-based
[3] = Antioxidant activity assessed as DPPH radical scavenging activity at 100 uM incubated for 30 mins under dark condition by spectrophotometry; assay type: functional
[4] = test system: MIN6; assay: Antidiabetic activity in mouse MIN6 cells after 35 passages assessed as increase in insulin secretion at 100 uM in presence of 25 mM glucose by ELISA relative to control; assay type: functional
[5] = molecular target: Aldo-keto reductase family 1 member B1 (Rattus norvegicus) (UniProt P07943); assay: (§2) Inhibition of ALR2 in rat sciatic nerve assessed as reduction in sorbitol accumulation incubated for 3 hrs in presence of 28 mM glucose by gas chromatographic analysis
[6] = molecular target: T1, Aldo-keto reductase family 1 member B1; assay: as §2
[7] = molecular target: Aldo-keto reductase family 1 member B1 (Homo sapiens, UniProt P15121); assay: Inhibition of human recombinant ALR2 expressed in Escherichia coli using DL-glyceraldehyde as substrate and NADPH preincubated for 5 mins followed by substrate addition and measured after 30 mins at 2 mins interval by spectrophotometry relative to control
[8] = test system: MIN6; assay: Antidiabetic activity in mouse MIN6 cells after 83 passages assessed as increase in insulin secretion at 100 uM in presence of 25 mM glucose by ELISA relative to control; assay type: functional
[9] = Cytotoxicity against mouse MIN6 cells assessed as cell viability at 400 uM incubated for 24 hrs by MTT assay; assay type: cell-based; details: read-out: Activity
[10] = test system: MIN6; assay: Effect on cell morphology in mouse MIN6 cells assessed as cell viability up to 400 uM incubated for 24 hrs; assay type: cell-based; details: min6, 24 h
[11] = Cytotoxicity against HEK293 cells assessed as reduction in cell viability at 25 uM incubated for 48 hrs by MTT assay relative to control; assay type: cell-based; details: human, read-out: INH
[12] = Cytotoxicity against HEK293 cells assessed as reduction in cell viability at 100 uM incubated for 48 hrs by MTT assay relative to control; assay type: cell-based; details: human, read-out: INH
[13] = Cytotoxicity against HEK293 cells assessed as reduction in cell viability at 50 uM incubated for 48 hrs by MTT assay relative to control; assay type: cell-based; details: human, read-out: INH
[14] = molecular target: Aldo-keto reductase family 1 member B1 (Rattus norvegicus) (UniProt P07943); assay: (§3) Inhibition of ALR2 in rat lens assessed as reduction in sorbitol accumulation incubated for 3 hrs in presence of 28 mM glucose by gas chromatographic analysis relative to control
[15] = molecular target: T1, Aldo-keto reductase family 1 member B1; assay: as §3
[16] = Cytotoxicity against HEK293 cells assessed as reduction in cell viability at 200 uM incubated for 48 hrs by MTT assay relative to control; assay type: cell-based; details: human, read-out: INH
[17] = test system: MIN6; assay: Cytotoxicity against mouse MIN6 cells assessed as reduction in cell viability up to 200 uM incubated for 24 hrs by MTT assay; assay type: cell-based; details: min6, 24 h
[18] = molecular target: Aldo-keto reductase family 1 member A1 (Rattus norvegicus, UniProt P51635); assay: Inhibition of rat kidney ALR1 using DL-glyceraldehyde as substrate and NADPH preincubated for 5 mins followed by substrate addition and measured for 30 mins at 2 mins interval by spectrophotometry relative to control
[19] = Selectivity ratio of IC50 for rat kidney ALR1 IC50 to IC50 for human recombinant ALR2
[20] = Antioxidant activity assessed as DPPH radical scavenging activity at 50 uM incubated for 30 mins under dark condition by spectrophotometry; assay type: functional
[21] = Antioxidant activity assessed as DPPH radical scavenging activity at 10 uM incubated for 30 mins under dark condition by spectrophotometry; assay type: functional

Aldo-keto reductase family 1 member A1, sequence (P51635 whole entry, looked up): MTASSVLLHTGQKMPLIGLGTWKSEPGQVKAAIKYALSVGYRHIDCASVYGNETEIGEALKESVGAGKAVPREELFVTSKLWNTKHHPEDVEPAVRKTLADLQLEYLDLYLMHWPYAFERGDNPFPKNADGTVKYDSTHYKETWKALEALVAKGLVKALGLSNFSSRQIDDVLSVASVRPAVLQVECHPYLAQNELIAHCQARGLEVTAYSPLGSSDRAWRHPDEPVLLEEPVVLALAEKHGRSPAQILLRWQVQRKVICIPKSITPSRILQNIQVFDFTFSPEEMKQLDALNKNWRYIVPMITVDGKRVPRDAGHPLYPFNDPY

SMILES | inhibition [1] | pIC50 [2] | inhibition [5] | pIC50 [6] | pIC50 [7] | inhibition [14] | pIC50 [15] | inhibition [3] [%] | Activity [4] [%] | Activity [8] [%] | viability at 24 h, 400 µM [9] [%] | Activity [10] | cytotoxicity at 48 h, 25 µM [11] [%] | cytotoxicity at 48 h, 100 µM [12] [%] | cytotoxicity at 48 h, 50 µM [13] [%] | cytotoxicity at 48 h, 200 µM [16] [%] | Activity [17] | inhibition [20] [%] | inhibition [21] [%] | also measured
O=C1NC2(CCCc3ccccc32)C(=O)N1S(=O)(=O)c1ccc(Br)cc1 (stereo not drawn) | Dose-dependent effect | 4.95 | Dose-dependent effect | 4.98 | 4.96 | Dose-dependent effect | 4.96 | 1.55 | 165 |  | 81 | Non-Toxic | 16.9 | 21.1 | 18.9 | 39.3 | Non-Toxic |  |  | pIC50 [18]: 4.36; Ratio IC50 [19]: 4.07
O=C1NC2(CCCc3ccccc32)C(=O)N1S(=O)(=O)c1ccc(F)cc1 (stereo not drawn) | Dose-dependent effect |  | Dose-dependent effect |  |  | Dose-dependent effect |  | 2.51 | 111 |  | 81 | Non-Toxic | 11.4 | 31.9 | 26.1 | 36.5 | Non-Toxic |  |  | 
O=C1NC2(CCCc3ccccc32)C(=O)N1S(=O)(=O)c1ccc(Cl)cc1 (stereo not drawn) | Dose-dependent effect |  | Dose-dependent effect |  | 4.40 | Dose-dependent effect |  | 8.44 | 145 |  | 81 | Non-Toxic | 12.7 | 18.2 | 16.1 | 23.3 | Non-Toxic |  |  | 
Cc1c(C)c2c(c(C)c1O)CCC(C)(C(=O)O)O2 (stereo not drawn) |  |  |  |  |  |  |  | 94.2 |  |  |  |  |  |  |  |  |  | 84.5 | 82.5 | 
Cc1ccc(S(=O)(=O)N2C(=O)NC(=O)C23CCCc2ccccc23)cc1 (stereo not drawn) | Dose-dependent effect | 5.87 | Dose-dependent effect | 5.88 | 5.30 | Dose-dependent effect | 5.94 | 42.4 | 308 | 222 | 81 | Non-Toxic | 13.9 | 22.6 | 22.9 | 32 | Non-Toxic | 37.5 | 33.3 | 
CC(/C=C1\SC(=S)N(CC(=O)O)C1=O)=C\c1ccccc1 |  |  |  |  |  |  |  |  |  |  |  |  | 10.3 | 13.7 | 12 | 18.3 |  |  |  | 
CC(=O)c1ccc(S(=O)(=O)N2C(=O)NC3(CCCc4ccccc43)C2=O)cc1 (stereo not drawn) | Dose-dependent effect | 4.59 | Dose-dependent effect | 4.64 | 4.42 | Dose-dependent effect | 4.46 | 75.3 | 118 |  | 81 | Non-Toxic | 17.5 | 42 | 24.4 | 55.5 | Non-Toxic | 39.8 | 25.1 | 

The next lines start with results.

inhibition [1] | pIC50 [2] | inhibition [5] | pIC50 [6] | pIC50 [7] | inhibition [14] | pIC50 [15] | SMILES | inhibition [3] [%] | Activity [4] [%] | Activity [8] [%] | viability at 24 h, 400 µM [9] [%] | Activity [10] | cytotoxicity at 48 h, 25 µM [11] [%] | cytotoxicity at 48 h, 100 µM [12] [%] | cytotoxicity at 48 h, 50 µM [13] [%] | cytotoxicity at 48 h, 200 µM [16] [%] | Activity [17] | inhibition [20] [%] | inhibition [21] [%] | also measured
Dose-dependent effect | 5.26 | Dose-dependent effect | 5.13 | 5.23 | Dose-dependent effect | 5.20 | O=C1NC(=O)C2(CCCc3ccccc32)N1S(=O)(=O)c1ccc(F)cc1 (stereo not drawn) | 2.52 | 250 | 164 | 81 | Non-Toxic | 11.9 | 25.1 | 18.9 | 36.3 | Non-Toxic |  |  | 
Dose-dependent effect | 4.69 | Dose-dependent effect | 4.71 | 4.93 | Dose-dependent effect | 4.80 | COc1ccc(S(=O)(=O)N2C(=O)NC3(CCCc4ccccc43)C2=O)cc1 (stereo not drawn) | 66.9 | 142 |  | 81 | Non-Toxic | 15.4 | 18.5 | 13.6 | 26.6 | Non-Toxic | 45.3 | 31.6 | pIC50 [18]: 4.59; Ratio IC50 [19]: 2.2
Dose-dependent effect |  | Dose-dependent effect |  |  | Dose-dependent effect |  | O=C1NC2(CCCc3ccccc32)C(=O)N1S(=O)(=O)c1ccc([N+](=O)[O-])cc1 (stereo not drawn) | 77.6 | 121 |  | 81 | Non-Toxic | 9.37 | 19.2 | 14.2 | 28.4 | Non-Toxic | 67.3 | 44.8 | 
Dose-dependent effect | 5.55 | Dose-dependent effect | 5.57 | 5.24 | Dose-dependent effect | 5.60 | O=C1NC(=O)C2(CCCc3ccccc32)N1S(=O)(=O)c1ccc(Br)cc1 (stereo not drawn) | 1.59 | 210 | 160 | 81 | Non-Toxic | 12.8 | 19.4 | 18.8 | 25.8 | Non-Toxic |  |  | pIC50 [18]: 4.38; Ratio IC50 [19]: 7.23
Dose-dependent effect | 5.42 | Dose-dependent effect | 5.36 | 5.21 | Dose-dependent effect | 5.41 | O=C1NC(=O)C2(CCCc3ccccc32)N1S(=O)(=O)c1ccc(Cl)cc1 (stereo not drawn) | 8.48 | 140 | 159 | 81 | Non-Toxic | 10.8 | 19.9 | 12.6 | 33.3 | Non-Toxic |  |  | 
Dose-dependent effect | 5.77 | Dose-dependent effect | 5.76 | 5.74 | Dose-dependent effect | 5.81 | Cc1ccc(S(=O)(=O)N2C(=O)NC3(CCCc4ccccc43)C2=O)cc1 (stereo not drawn) | 42.4 | 275 | 177 | 81 | Non-Toxic | 18.2 | 20.2 | 19.1 | 21.5 | Non-Toxic | 37.3 | 23.2 | 
Dose-dependent effect |  | Dose-dependent effect |  | 4.46 | Dose-dependent effect |  | O=C1NC(=O)C2(CCCc3ccccc32)N1S(=O)(=O)c1ccc([N+](=O)[O-])cc1 (stereo not drawn) | 87.6 | 145 |  | 81 | Non-Toxic | 23.6 | 39.2 | 36 | 53.4 | Non-Toxic | 77.3 | 70.5 | 
